Test results published in patent US9029536B2, “Fused heterocyclic compounds” (Takeda Pharmaceutical Company Limited, priority 2010, dated 2015).
Counter-ions that a name gives are not always drawn.

system: not given; test: not given; details: not given

Row | melting point | SMILES
1 | 264 °C (dec.) | c1ccc2[nH]c(Oc3ccc(-c4c5n(c6cccnc46)CCCC5)cc3)nc2c1 [Example 13, 10-[4-(1H-Benzimidazol-2-yloxy)phenyl]-6,7,8,9-tetrahydropyrido[2,3-b]indolizine]
2 | 176 to 177 °C | CCn1nc(-c2ccc(Oc3nc4cccnc4n3C)cc2)c2ncccc21 [Example 14, 1-Ethyl-3-{4-[(3-methyl-3H-imidazo[4,5-b]pyridin-2-yl)oxy]phenyl}-1H-pyrazolo[4,3-b]pyridine]
3 | 163 to 164 °C | CC(C)n1nc(-c2ccc(Oc3nc4cccnc4n3C)cc2)c2ncccc21 [Example 18, 1-(1-Methylethyl)-3-{4-[(3-methyl-3H-imidazo[4,5-b]pyridin-2-yl)oxy]phenyl}-1H-pyrazolo[4,3-b]pyridine]
4 | 161 to 162 °C | CCn1nc(-c2ccc(Oc3nc4cccnc4n3C)cc2)c2nccnc21 [Example 28, 1-Ethyl-3-{4-[(3-methyl-3H-imidazo[4,5-b]pyridin-2-yl)oxy]phenyl}-1H-pyrazolo[3,4-b]pyrazine]
5 | 183 to 184 °C | CCn1nc(-c2ccc(Oc3nc4ccccc4n3CCO)cc2)c2ncccc21 [Example 29, 2-{2-[4-(1-Ethyl-1H-pyrazolo[4,3-b]pyridin-3-yl)phenoxy]-1H-benzimidazol-1-yl}ethanol]
6 | 152 to 153 °C | CCn1nc(-c2ccc(Oc3nc4ccccc4n3CC(C)(C)O)cc2)c2ncccc21 [Example 36, 1-{2-[4-(1-Ethyl-1H-pyrazolo[4,3-b]pyridin-3-yl)phenoxy]-1H-benzimidazol-1-yl}-2-methylpropan-2-ol]
7 | 218 to 220 °C | CCn1nc(-c2ccc(Oc3nc4cccnc4n3C)cc2)c2ncncc21 [Example 38, 1-Ethyl-3-{4-[(3-methyl-3H-imidazo[4,5-b]pyridin-2-yl)oxy]phenyl}-1H-pyrazolo[4,3-d]pyrimidine]

biological target: T1, Human PDE10A enzyme (Homo sapiens, UniProt Q9Y233); test: PDE enzyme inhibition (SPA, [3H]cGMP); assay type: biochemical; details: 1 μM compound, [3H]cGMP substrate
T1 construct: Sf9 or COS-7 cells transfected with the full-length gene; His-tag; made in house; host or cells: Sf9 or COS-7 cells
Procedure: Human PDE10A enzyme was generated from Sf9 or COS-7 cells transfected with the full-length gene. Cloned enzyme was extracted from homogenized cell pellets. The extracted enzyme from sf9 cells was partially purified using His-tag affinity column. The enzyme was stored at −70° C. until use. PDE activity was measured using a SPA (Scintillation Proximity Assay) (GE Healthcare). To evaluate the inhibitory activity, 10 μL of serial diluted compounds were incubated with 20 μL of PDE enzyme in assay buffer (50 mM HEPES-NaOH, 8.3 mM MgCl2, 1.7 mM EGTA, 0.1% BSA (pH 7.4)) for 30 min. at room temperature. Final concentration of DMSO in the assay was 1 percent as compounds were tested in duplicate in 96-well half-area plates (Corning). To start the reaction, 10 μL of substrate [^3H] cGMP (25 or 50 nM; enclosed in SPA kits from GE Healthcare or purchased from PerkinElmer, respectively) was added for a final assay volume of 40 μL. After 60 min incubation at room temperature, yttrium SPA beads containing Zinc sulphate were added (20 μL at 6 mg/mL) to terminate the PDE reaction. After being settled for 60 min, assay plates were counted in a scintillation counter (PerkinElmer) to allow calculation of inhibition rate. Inhibition rate was calculated on the basis of 0% control wells with DMSO and 100% control wells without enzyme.

T1 sequence (Q9Y233 267-1055): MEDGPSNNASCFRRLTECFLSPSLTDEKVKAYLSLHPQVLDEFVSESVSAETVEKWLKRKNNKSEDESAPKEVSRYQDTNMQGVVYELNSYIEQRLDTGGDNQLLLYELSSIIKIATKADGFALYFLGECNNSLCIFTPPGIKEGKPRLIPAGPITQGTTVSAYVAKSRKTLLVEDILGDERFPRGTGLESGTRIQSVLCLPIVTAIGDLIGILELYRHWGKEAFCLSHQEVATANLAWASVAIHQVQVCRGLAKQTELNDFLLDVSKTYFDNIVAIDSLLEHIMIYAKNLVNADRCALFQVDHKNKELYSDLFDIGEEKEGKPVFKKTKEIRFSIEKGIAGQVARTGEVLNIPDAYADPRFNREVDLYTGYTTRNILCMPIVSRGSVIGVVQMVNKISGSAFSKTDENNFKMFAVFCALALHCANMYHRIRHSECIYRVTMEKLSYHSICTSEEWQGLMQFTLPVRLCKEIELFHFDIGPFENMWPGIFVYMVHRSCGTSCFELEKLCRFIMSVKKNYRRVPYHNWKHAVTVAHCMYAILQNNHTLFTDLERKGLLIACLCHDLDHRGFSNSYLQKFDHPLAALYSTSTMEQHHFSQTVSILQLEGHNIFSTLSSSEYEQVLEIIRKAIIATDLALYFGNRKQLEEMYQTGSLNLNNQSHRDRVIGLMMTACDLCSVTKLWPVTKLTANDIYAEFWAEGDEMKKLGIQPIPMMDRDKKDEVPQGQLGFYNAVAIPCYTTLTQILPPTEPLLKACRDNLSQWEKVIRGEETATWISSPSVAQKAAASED

Row | inhibition at 1 µM [%] | SMILES
8 | 101 | CCn1nc(-c2ccc(Oc3nc4cccnc4n3C)cc2)c2ncc(F)cc21 [Example 37, 1-Ethyl-6-fluoro-3-{4-[(3-methyl-3H-imidazo[4,5-b]pyridin-2-yl)oxy]phenyl}-1H-pyrazolo[4,3-b]pyridine]
9 | 103 | CCn1nc(-c2ccc(Oc3nc4cccnc4n3C)cc2)c2ncncc21 [Example 38, 1-Ethyl-3-{4-[(3-methyl-3H-imidazo[4,5-b]pyridin-2-yl)oxy]phenyl}-1H-pyrazolo[4,3-d]pyrimidine]
10 | 102 | Cn1c(Oc2ccc(-c3nn(CC(F)F)c4cccnc34)cc2)nc2cccnc21 [Example 39, 1-(2,2-Difluoroethyl)-3-{4-[(3-methyl-3H-imidazo[4,5-b]pyridin-2-yl)oxy]phenyl}-1H-pyrazolo[4,3-b]pyridine]
11 | 101 | CC(C)n1nc(-c2ccc(Oc3nc4cccnc4n3C)cc2)c2ncc(F)cc21 [Example 40, 6-Fluoro-1-(1-methylethyl)-3-{4-[(3-methyl-3H-imidazo[4,5-b]pyridin-2-yl)oxy]phenyl}-1H-pyrazolo[4,3-b]pyridine]
12 | 107 | Cn1nc(-c2ccc(Oc3nc4cccnc4n3C)cc2)c2ncccc21 [Example 44, 1-Methyl-3-{4-[(3-methyl-3H-imidazo[4,5-b]pyridin-2-yl)oxy]phenyl}-1H-pyrazolo[4,3-b]pyridine]
13 | 95 | Cn1nc(-c2ccc(Oc3nc4cccnc4n3C)cc2)c2ncc(F)cc21 [Example 45, 6-Fluoro-1-methyl-3-{4-[(3-methyl-3H-imidazo[4,5-b]pyridin-2-yl)oxy]phenyl}-1H-pyrazolo[4,3-b]pyridine]
14 | 104 | CCn1nc(-c2ccc(Oc3nc4cccnc4n3CCOC)cc2)c2ncc(F)cc21 [Example 48, 1-Ethyl-6-fluoro-3-(4-{[3-(2-methoxyethyl)-3H-imidazo[4,5-b]pyridin-2-yl]oxy}phenyl)-1H-pyrazolo[4,3-b]pyridine]
15 | 103 | COCCn1c(Oc2ccc(-c3nn(CC(F)F)c4cc(F)cnc34)cc2)nc2cccnc21 [Example 49, 1-(2,2-Difluoroethyl)-6-fluoro-3-(4-{[3-(2-methoxyethyl)-3H-imidazo[4,5-b]pyridin-2-yl]oxy}phenyl)-1H-pyrazolo[4,3-b]pyridine]
16 | 100 | COCCn1c(Oc2ccc(-c3nn(C)c4cc(F)cnc34)cc2)nc2cccnc21 [Example 50, 6-Fluoro-3-(4-{[3-(2-methoxyethyl)-3H-imidazo[4,5-b]pyridin-2-yl]oxy}phenyl)-1-methyl-1H-pyrazolo[4,3-b]pyridine]
17 | 102 | Cn1c(Oc2ccc(-c3nn(CC(F)F)c4cc(F)cnc34)cc2)nc2cccnc21 [Example 51]
18 | 101 | COCCn1c(Oc2ccc(-c3nn(CC(F)F)c4cccnc34)cc2)nc2cccnc21 [Example 52, 1-(2,2-Difluoroethyl)-3-(4-{[3-(2-methoxyethyl)-3H-imidazo[4,5-b]pyridin-2-yl]oxy}phenyl)-1H-pyrazolo[4,3-b]pyridine]

The remaining lines, values behind:

Row | SMILES | inhibition at 1 µM [%]
19 | Cn1cc(-c2ccc(Nc3nc4ccccc4o3)cc2)c2ncccc21 [Example 1, N-[4-(1-Methyl-1H-pyrrolo[3,2-b]pyridin-3-yl)phenyl]-1,3-benzoxazol-2-amine hydrochloride] | 97.6
20 | CCn1nc(-c2ccc(Oc3nc4ccccc4[nH]3)cc2)c2ncccc21 [Example 3, 3-[4-(1H-Benzimidazol-2-yloxy)phenyl]-1-ethyl-1H-pyrazolo[4,3-b]pyridine] | 97.7
21 | CCn1nc(-c2ccc(Oc3nc4ccccc4n3C)cc2)c2ncccc21 [Example 4, 1-Ethyl-3-{4-[(1-methyl-1H-benzimidazol-2-yl)oxy]phenyl}-1H-pyrazolo[4,3-b]pyridine] | 98.7
22 | CCn1nc(-c2ccc(C(=O)c3nc4ccccc4n3C)cc2)c2ncccc21 [Example 6, [4-(1-Ethyl-1H-pyrazolo[4,3-b]pyridin-3-yl)phenyl] (1-methyl-1H-benzimidazol-2-yl)methanone] | 95
23 | CCn1nc(-c2ccc3c(c2)CCN3c2nc3ccccc3[nH]2)c2ncccc21 [Example 7, 3-[1-(1H-Benzimidazol-2-yl)-2,3-dihydro-1H-indol-5-yl]-1-ethyl-1H-pyrazolo[4,3-b]pyridine] | 101
24 | CCn1nc(-c2ccc(Oc3cn4ccccc4n3)cc2)c2ncccc21 [Example 8, 1-Ethyl-3-[4-(imidazo[1,2-a]pyridin-2-yloxy)phenyl]-1H-pyrazolo[4,3-b]pyridine hydrochloride] | 100
25 | CCn1nc(-c2ccc(Oc3nc4ccccc4[nH]3)nc2)c2ncccc21 [Example 10, 3-[6-(1H-Benzimidazol-2-yloxy)pyridin-3-yl]-1-ethyl-1H-pyrazolo[4,3-b]pyridine] | 99
26 | c1ccc2[nH]c(Oc3ccc(-c4c5n(c6cccnc46)CCCC5)cc3)nc2c1 [Example 13, 10-[4-(1H-Benzimidazol-2-yloxy)phenyl]-6,7,8,9-tetrahydropyrido[2,3-b]indolizine] | 103
27 | CC(C)n1nc(-c2ccc(Oc3nc4cccnc4n3C)cc2)c2ncccc21 [Example 18, 1-(1-Methylethyl)-3-{4-[(3-methyl-3H-imidazo[4,5-b]pyridin-2-yl)oxy]phenyl}-1H-pyrazolo[4,3-b]pyridine] | 100
28 | CCn1nc(-c2ccc(C3CCn4c3nc3ccccc34)cc2)c2ncccc21 (centres unmarked) [Example 24, 3-[4-(1-Ethyl-1H-pyrazolo[4,3-b]pyridin-3-yl)phenyl]-2,3-dihydro-1H-pyrrolo[1,2-a]benzimidazole] | 99
29 | CCn1nc(-c2ccc(Oc3nc4cccnc4n3C)cc2)c2nccnc21 [Example 28, 1-Ethyl-3-{4-[(3-methyl-3H-imidazo[4,5-b]pyridin-2-yl)oxy]phenyl}-1H-pyrazolo[3,4-b]pyrazine] | 101
30 | CCn1nc(-c2ccc(Oc3nc4cccnc4n3CCOC)cc2)c2ncccc21 [Example 34, 1-Ethyl-3-(4-{[3-(2-methoxyethyl)-3H-imidazo[4,5-b]pyridin-2-yl]oxy}phenyl)-1H-pyrazolo[4,3-b]pyridine] | 105
31 | COCCn1c(Oc2ccc(-c3nn(C(C)C)c4cccnc34)cc2)nc2cccnc21 [Example 35] | 93
32 | CCn1nc(-c2ccc(Oc3nc4ccccc4n3CC(C)(C)O)cc2)c2ncccc21 [Example 36, 1-{2-[4-(1-Ethyl-1H-pyrazolo[4,3-b]pyridin-3-yl)phenoxy]-1H-benzimidazol-1-yl}-2-methylpropan-2-ol] | 99
